Measurements published in patent US20240360114A1 (SIRONAX LTD., priority 2021, published 2024).
pEC50: −log10 of the molar value.

System: HT-1080 cells
Test: HT-1080 cell viability assay (ferroptosis induced by RSL3, Cell Titer-Glo)
Type: cell-based
Settings: Homo sapiens, HT-1080, 20 h, ferroptosis inducer RSL3, 20 hours, ferroptosis inhibitory activity, Table 2
Experimental: Example 2. Determination of EC50 Values in HT-1080 Cell Viability Assay
HT-1080 (ATCC, CCL-121) cells (6000 in 100 μl) were seeded in 96-well plates (Corning) and cultured in a 37° C. incubator with a humidified atmosphere of 5% CO2 for overnight. Cells were then treated with ferroptosis inducer RSL3 (TargetMol) and a 3-fold, 10-point serial dilution series of compounds with 1.1 μM as the highest concentration, for 20 hours. Cell viability was assessed using the Cell Titer-Glo Kit (Promega). The luminescence intensity was measured with a microplate reader (Envision, PerkinElmer), and cell viability was calculated by normalizing the data to untreated controls. The EC50 values of the compounds (e.g., Compounds 1-573 and 574-661) were calculated in GraphPad Prism (GraphPad Software, Inc., San Diego, CA, USA). The curves were fitted using a non-linear regression model with a sigmoidal dose response.

| Compound | pEC50 |
| --- | --- |
| CC(C)(C)Nc1ccc(N2CCC(C(F)(F)F)CC2)cc1 [Compound 11, N-(tert-butyl)-4-(4-(trifluoromethyl)piperidin-1-yl)aniline] | 6.00 to 7.00 |
| COCCCCNc1ccc(N2CCC(C(F)(F)F)CC2)cc1 [Compound 12, N-(4-methoxybutyl)-4-(4-(trifluoromethyl)piperidin-1-yl)aniline] | 7.00 to 10.00 |
| CCNc1ccc(N2CCC(C(F)(F)F)CC2)cc1 [Compound 13, N-ethyl-4-(4-(trifluoromethyl)piperidin-1-yl)aniline] | 7.00 to 10.00 |
| CCCNc1ccc(N2CCC(C(F)(F)F)CC2)cc1 [Compound 14, N-propyl-4-(4-(trifluoromethyl)piperidin-1-yl)aniline] | 7.00 to 10.00 |
| CCCCCNc1ccc(N2CCC(C(F)(F)F)CC2)cc1 [Compound 15, N-pentyl-4-(4-(trifluoromethyl)piperidin-1-yl)aniline] | 7.00 to 10.00 |
| CC(C)C1CCN(c2ncc(NC3CC(N)C3)cn2)CC1 (stereo not shown) [Compound 28, N1-(2-(4-isopropylpiperidin-1-yl)pyrimidin-5-yl)cyclobutane-1,3-diamine] | 7.00 to 10.00 |
| CC1(C)CN(c2ncc(NC3CCC(N)CC3)cn2)C1 (stereo not shown) [Compound 33A, N1-(2-(3,3-dimethylazetidin-1-yl)pyrimidin-5-yl)cyclohexane-1,4-diamine] | 5.00 to 6.00 |
| CC(C)C1CCN(c2ncc(NC3CCNCC3)cn2)CC1 [Compound 35, 2-(4-isopropylpiperidin-1-yl)-N-(piperidin-4-yl)pyrimidin-5-amine] | 7.00 to 10.00 |
| CC(C)C1CCN(c2ncc(NC3CCNC3)cn2)CC1 (stereo not shown) [Compound 36, 2-(4-isopropylpiperidin-1-yl)-N-(pyrrolidin-3-yl)pyrimidin-5-amine] | 7.00 to 10.00 |
| NC1CCC(Nc2ccc(-n3cccn3)cc2)CC1 (stereo not shown) [Compound 37A, N1-(4-(1H-pyrazol-1-yl)phenyl)cyclohexane-1,4-diamine] | 5.00 to 6.00 |
| CC(C)C1CCN(c2ncc(NC3CCC(N)C3)cn2)CC1 (stereo not shown) [Compound 38, N1-(2-(4-isopropylpiperidin-1-yl)pyrimidin-5-yl)cyclopentane-1,3-diamine] | 7.00 to 10.00 |
| COCCCCOc1cc(NC2CCC(N)CC2)ccc1N1CCC(C(F)(F)F)CC1 (stereo not shown) [Compound 39, N1-(3-(4-methoxybutoxy)-4-(4-(trifluoromethyl)piperidin-1-yl)phenyl)cyclohexane-1,4-diamine] | 7.00 to 10.00 |
| CC1(C)CCN(c2ncc(NC3CCC(N)CC3)cn2)CC1 (stereo not shown) [Compound 45, N1-(2-(4,4-dimethylpiperidin-1-yl)pyrimidin-5-yl)cyclohexane-1,4-diamine] | 7.00 to 10.00 |
| CCCC1CN(c2ncc(NC3CCC(N)CC3)cn2)C1 (stereo not shown) [Compound 46, N1-(2-(3-propylazetidin-1-yl)pyrimidin-5-yl)cyclohexane-1,4-diamine] | 6.00 to 7.00 |
| NC1CCC(Nc2cnc(N3CC4(CCC4)C3)nc2)CC1 (stereo not shown) [Compound 47, N1-(2-(2-azaspiro[3.3]heptan-2-yl)pyrimidin-5-yl)cyclohexane-1,4-diamine] | 6.00 to 7.00 |
| CC(C)C1CCN(c2ncc(NC3CC(CN)C3)cn2)CC1 (stereo not shown) [Compound 49, N-(3-(aminomethyl)cyclobutyl)-2-(4-isopropylpiperidin-1-yl)pyrimidin-5-amine] | 7.00 to 10.00 |
| CC(C)C1CCN(c2ncc(NC3CCC(C)(N)CC3)cn2)CC1 (stereo not shown) [Compound 50, N1-(2-(4-isopropylpiperidin-1-yl)pyrimidin-5-yl)-4-methylcyclohexane-1,4-diamine] | 7.00 to 10.00 |

The next lines start with the values.

| pEC50 | Compound |
| --- | --- |
| 5.00 to 6.00 | O=C(O)C1CCC(Nc2ccc(N3CCC(C(F)(F)F)CC3)cc2)CC1 (stereo not shown) [Compound 9, 4-((4-(4-(trifluoromethyl)piperidin-1-yl)phenyl)amino)cyclohexane-1-carboxylic acid] |
| 7.00 to 10.00 | NC(=O)C1CCC(Nc2ccc(N3CCC(C(F)(F)F)CC3)cc2)CC1 (stereo not shown) [Compound 10, 4-((4-(4-(trifluoromethyl)piperidin-1-yl)phenyl)amino)cyclohexane-1-carboxamide] |
| 7.00 to 10.00 | CN1CCC(Nc2ccc(N3CCC(C(F)(F)F)CC3)cc2)C1 (stereo not shown) [Compound 16, 1-methyl-N-(4-(4-(trifluoromethyl)piperidin-1-yl)phenyl)pyrrolidin-3-amine] |
| 7.00 to 10.00 | FC(F)(F)C1CCN(c2ccc(NC3CCOCC3)cc2)CC1 [Compound 17, N-(4-(4-(trifluoromethyl)piperidin-1-yl)phenyl)tetrahydro-2H-pyran-4-amine] |
| 7.00 to 10.00 | O=C1NC[C@H](C(=O)NCC2CCC(Nc3ccc(N4CCC(C(F)(F)F)CC4)cc3)CC2)N1 (stereo partly drawn) [Compound 18, (R)-2-oxo-N-((4-((4-(4-(trifluoromethyl)piperidin-1-yl)phenyl)amino)cyclohexyl)methyl)imidaz olidine-4-carboxamide] |
| 7.00 to 10.00 | O=C(NCC1CCC(Nc2ccc(N3CCC(C(F)(F)F)CC3)cc2)CC1)C1CCNC1 (stereo not shown) [Compound 19, N-((4-((4-(4-(trifluoromethyl)piperidin-1-yl)phenyl)amino)cyclohexyl)methyl)pyrrolidine-3-car boxamide] |
| 7.00 to 10.00 | NCC1CCC(Nc2ccc(N3CCC(C(F)(F)F)CC3)nc2)CC1 (stereo not shown) [Compound 21, N-(4-(aminomethyl)cyclohexyl)-6-(4-(trifluoromethyl)piperidin-1-yl)pyridin-3-amine] |
| 6.00 to 7.00 | Cc1cc(N2CCC(C(F)(F)F)CC2)nc(F)c1NC1CCC(CN)CC1 (stereo not shown) [Compound 22, N-(4-(aminomethyl)cyclohexyl)-2-fluoro-4-methyl-6-(4-(trifluoromethyl)piperidin-1-yl)pyridin-3-amine] |
| 7.00 to 10.00 | Cc1nc(N2CCC(C(F)(F)F)CC2)ccc1NC1CCC(CN)CC1 (stereo not shown) [Compound 25, N-(4-(aminomethyl)cyclohexyl)-2-methyl-6-(4-(trifluoromethyl)piperidin-1-yl)pyridin-3-amine] |
| 7.00 to 10.00 | Cc1nc(N2CCC(C)CC2)ccc1NC1CCC(CN)CC1 (stereo not shown) [Compound 26, N-(4-(aminomethyl)cyclohexyl)-2-methyl-6-(4-methylpiperidin-1-yl)pyridin-3-amine] |
| 6.00 to 7.00 | CN1CCC(Nc2ccc(N3CCC(C(F)(F)F)CC3)cc2)CC1=O (stereo not shown) [Compound 27, 1-methyl-4-((4-(4-(trifluoromethyl)piperidin-1-yl)phenyl)amino)piperidin-2-one] |
| 7.00 to 10.00 | CCCC1CCN(c2ncc(NC3CCC(N)CC3)cn2)CC1 (stereo not shown) [Compound 29, N1-(2-(4-propylpiperidin-1-yl)pyrimidin-5-yl)cyclohexane-1,4-diamine] |
| 7.00 to 10.00 | CCCCC1CCN(c2ccc(NC3CCC(CN)CC3)c(C)n2)CC1 (stereo not shown) [Compound 30, N-(4-(aminomethyl)cyclohexyl)-6-(4-butylpiperidin-1-yl)-2-methylpyridin-3-amine] |
| 7.00 to 10.00 | Cc1nc(N2CCC(C(C)C)CC2)ccc1NC1CCC(CN)CC1 (stereo not shown) [Compound 31, N-(4-(aminomethyl)cyclohexyl)-6-(4-isopropylpiperidin-1-yl)-2-methylpyridin-3-amine] |
| 7.00 to 10.00 | Cc1nc(N2CCC(C)(C)CC2)ccc1NC1CCC(CN)CC1 (stereo not shown) [Compound 32A, N-(4-(aminomethyl)cyclohexyl)-6-(4,4-dimethylpiperidin-1-yl)-2-methylpyridin-3-amine] |
| 7.00 to 10.00 | CC(C)C1CCN(c2ncc(NC3CCC(N)CC3)cn2)CC1 (stereo not shown) [Compound 34A, N1-(2-(4-isopropylpiperidin-1-yl)pyrimidin-5-yl)cyclohexane-1,4-diamine] |
| 7.00 to 10.00 | NC1CCC(Nc2ccc(N3CCC(C(F)(F)F)CC3)cc2)CC1 (stereo not shown) [Compound 40, N1-(4-(4-(trifluoromethyl)piperidin-1-yl)phenyl)cyclohexane-1,4-diamine] |
| 6.00 to 7.00 | NCCOc1cc(NC2CCC(N)CC2)ccc1N1CCC(C(F)(F)F)CC1 (stereo not shown) [Compound 41A, N1-(3-(2-aminoethoxy)-4-(4-(trifluoromethyl)piperidin-1-yl)phenyl)cyclohexane-1,4-diamine] |
| 7.00 to 10.00 | NC1CCC(Nc2cnc(N3CCC(C(F)(F)F)CC3)nc2)CC1 (stereo not shown) [Compound 42, N1-(2-(4-(trifluoromethyl)piperidin-1-yl)pyrimidin-5-yl)cyclohexane-1,4-diamine] |
| 7.00 to 10.00 | CCC1CCN(c2ncc(NC3CCC(N)CC3)cn2)CC1 (stereo not shown) [Compound 43, N1-(2-(4-ethylpiperidin-1-yl)pyrimidin-5-yl)cyclohexane-1,4-diamine] |
| 7.00 to 10.00 | CC1CCN(c2ncc(NC3CCC(N)CC3)cn2)CC1 (stereo not shown) [Compound 44, N1-(2-(4-methylpiperidin-1-yl)pyrimidin-5-yl)cyclohexane-1,4-diamine] |
| 7.00 to 10.00 | CC(C)C1CCN(c2ncc(NC3CCC(CN)C3)cn2)CC1 (stereo not shown) [Compound 48, N-(3-(aminomethyl)cyclopentyl)-2-(4-isopropylpiperidin-1-yl)pyrimidin-5-amine] |
| 7.00 to 10.00 | CC1(N)CCC(Nc2ccc(N3CCC(C(F)(F)F)CC3)cc2)CC1 (stereo not shown) [Compound 51, 1-methyl-N4-(4-(4-(trifluoromethyl)piperidin-1-yl)phenyl)cyclohexane-1,4-diamine] |
| 7.00 to 10.00 | NC1CCC(Nc2cnc(N3CCC(C(F)(F)F)CC3)cn2)CC1 (stereo not shown) [Compound 52, N1-(5-(4-(trifluoromethyl)piperidin-1-yl)pyrazin-2-yl)cyclohexane-1,4-diamine] |

Same assay, conditions: Homo sapiens, ferroptosis inducer RSL3, 20 hours, ferroptosis inhibitory activity, Table 2

| Compound | pEC50 |
| --- | --- |
| FC(F)(F)C1CCN(c2ccc(NC3CCNCC3)cc2)CC1 [Compound 20, N-(4-(4-(trifluoromethyl)piperidin-1-yl)phenyl)piperidin-4-amine] | 7.00 to 10.00 |
| CC(C)C1CCN(c2ncc(NC3CCC(CN)CC3)cn2)CC1 (stereo not shown) [Compound 24A, N-(4-(aminomethyl)cyclohexyl)-2-(4-isopropylpiperidin-1-yl)pyrimidin-5-amine] | 7.00 to 10.00 |
